Measured values reported in PubChem BioAssay AID434951 (Broad Institute, 2010).
Activity calls are given as the source filed them.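 Rule for the calls: active = a fitted half-maximal concentration EC50 for the rise in nuclear signal no higher than ten times the top dose tested; inconclusive = flat fit with activity between 30% and 70%, or unusable fit; inactive = EC50 beyond ten times the top dose.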

Each compound was assayed against Hypoxia-inducible factor 1-alpha (Homo sapiens) (UniProt Q16665) (assay: HIF pathway activation, GFP-HIF1alpha translocation – imaging, fluorescence, U2OS GFP-HIF1alpha, confirmation (AID 434951)). Conditions: U2OS GFP-HIF1alpha nuclear intensity, high-content imaging.
Hypoxia-inducible factor 1-alpha (Homo sapiens), sequence (Q16665 whole entry, looked up): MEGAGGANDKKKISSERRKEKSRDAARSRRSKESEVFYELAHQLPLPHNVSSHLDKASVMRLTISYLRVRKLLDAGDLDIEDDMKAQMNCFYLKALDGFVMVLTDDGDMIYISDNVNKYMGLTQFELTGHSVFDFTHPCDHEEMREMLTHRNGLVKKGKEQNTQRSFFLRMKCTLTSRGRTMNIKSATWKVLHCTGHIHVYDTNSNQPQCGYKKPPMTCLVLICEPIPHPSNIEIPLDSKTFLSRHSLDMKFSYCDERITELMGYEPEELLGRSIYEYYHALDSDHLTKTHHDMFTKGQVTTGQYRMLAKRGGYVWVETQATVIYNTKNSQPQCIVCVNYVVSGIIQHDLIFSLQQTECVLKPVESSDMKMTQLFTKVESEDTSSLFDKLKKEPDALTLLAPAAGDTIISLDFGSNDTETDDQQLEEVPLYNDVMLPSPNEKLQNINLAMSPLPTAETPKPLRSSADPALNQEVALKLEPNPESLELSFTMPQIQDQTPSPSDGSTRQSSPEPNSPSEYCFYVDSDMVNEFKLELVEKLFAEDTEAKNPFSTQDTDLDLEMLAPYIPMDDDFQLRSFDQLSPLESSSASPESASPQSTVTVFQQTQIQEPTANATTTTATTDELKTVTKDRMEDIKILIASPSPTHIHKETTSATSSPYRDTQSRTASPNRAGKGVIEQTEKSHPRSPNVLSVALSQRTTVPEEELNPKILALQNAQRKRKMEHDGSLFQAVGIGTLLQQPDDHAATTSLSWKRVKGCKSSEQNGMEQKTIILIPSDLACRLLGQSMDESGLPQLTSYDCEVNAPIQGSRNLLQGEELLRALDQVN

Compound | EC50
Cn1cc(CN2CCC(C(=O)Nc3cccc(-c4cscn4)c3)CC2)cn1 | > 35 µM (inactive)
CCCOC(=O)NC1C(NC(=O)OCCC)N(C)C(=O)N1C (configuration not stated) | > 35 µM (inactive)
CN(C)c1nc(-c2ccccn2)nnc1-c1ccccc1 | 6.68 µM
CCc1cc2c(=O)[nH]c(-c3ccccn3)nc2s1 | 4.75 µM
C/C(=N\OCc1nc2ccccc2c(=O)n1/N=C/c1cc(C)cc([N+](=O)[O-])c1O)c1ccccc1 | > 35 µM (inactive)
CCN(CC)CCCNC(=O)C1c2ccccc2C(=O)N(C)C1c1ccc(OC)cc1 (configuration not stated) | > 35 µM (inactive)
Cc1cc(C)c2nc(NNC(=O)c3ccc(S(=O)(=O)N4CCCC(C)C4)cc3)sc2c1 (configuration not stated) | 7.23 µM
COc1ccc2nc(NC(=O)Nc3ccccc3OC)sc2c1 | > 35 µM (inactive)
CNc1nc(-c2ccccn2)nnc1-c1ccccc1 | 7.4 µM
Cc1cccnc1Nc1nc(-c2ccccn2)cs1 | 3.83 µM
O=C(c1cc2ccccc2o1)N1CCN(Cc2ccc3c(c2)OCO3)CC1 | > 35 µM (inactive)
CC(C)(C)c1ccc(N2C(=O)CC(C/C=C/c3ccccc3)C2=O)cc1 (configuration not stated) | > 35 µM (inactive)
Cc1cc(C)c2sc(NNC(=O)c3ccc(S(=O)(=O)N4CCc5ccccc5C4)cc3)nc2c1 | 10.5 µM
COc1ccc(NC(=S)N2CCN(C(=O)c3ccccc3)CC2)cc1 | > 35 µM (inactive)
CC1SC(=NC(=O)c2ccncc2)NC1=O (configuration not stated) | > 35 µM (inactive)
Cc1oc(-c2ccc(Cl)cc2)cc1C(=O)/C(C#N)=C/Nc1cccc(OC(F)(F)F)c1 | > 35 µM (inactive)
CCN(CCN(C)C)C(=O)C1CCN(S(=O)(=O)c2c(C)noc2/C=C/c2ccccc2F)CC1 | 10.4 µM
COc1ccccc1C(c1nnnn1CC1CCCO1)N1CCC(C(N)=O)CC1 (configuration not stated) | > 35 µM (inactive)
COc1ccc(CNS(=O)(=O)c2cc3c4c(c2)C(C)C(=O)N4CCC3)cc1 (configuration not stated) | > 35 µM (inactive)
COc1cccc(C(NC(C)=O)c2ccc3cccnc3c2O)c1 (configuration not stated) | 5.94 µM
O=C(c1ccc(OC2CCN(CCc3ccccc3)CC2)cc1)N1CCCC(CCCO)C1 (configuration not stated) | > 35 µM (inactive)
O=C(Cn1ncc2c3ccccc3n(Cc3ccccc3F)c2c1=O)NCCN1CCOCC1 | > 35 µM (inactive)
COc1ccc(-c2cn3nc(SCC(=O)NCC4CCCO4)ccc3n2)cc1 (configuration not stated) | > 35 µM (inactive)
CCC/C(O)=C1\C(=O)CC(C)(C)CC1=NCc1ccccc1 | > 35 µM (inactive)
COc1ccc(CC(=O)NNC(=S)NCC2CC2)cc1OC | > 35 µM (inactive)
Cc1nc(C(=O)Nc2ccc(Cl)cc2Cl)nn1-c1cc(OC(C)C)c(Cl)cc1Cl | > 35 µM (inactive)

Compound | EC50
O=C(NC(c1ccccc1)c1ccccc1)C1CCCO1 (configuration not stated) | > 35 µM (inactive)
CCOc1ccc2c(c1)c1nnc(SCC3CCCO3)nc1n2C (configuration not stated) | > 35 µM (inactive)
Cc1ccccc1N=Nc1ccc(O)c2ncccc12 | 5.04 µM
C(/CCc1ccccc1)=N\Nc1nc2ccccc2[nH]1 | 35.9 µM
O=C(c1cccc(C(F)(F)F)c1)C1CCCN(C(=O)Cn2cncn2)C1 (configuration not stated) | > 35 µM (inactive)
CC(=O)N1CCC(=NNC(=O)c2cc3ccccc3cc2O)CC1 | > 35 µM (inactive)
CCc1nc(SCC(=O)c2ccccc2)c2ccccc2n1 | > 35 µM (inactive)
FC(F)(F)c1ccc2c(c1)NP(=S)(N1CCOCC1)c1nccn1-2 (configuration not stated) | > 35 µM (inactive)
O=C(N/N=C/c1cc(Br)ccc1O)c1cccc(N2CCCC2=O)c1 | 13.5 µM
Cc1ccc(CNC(=O)NC2CCCCC2)cc1 | > 35 µM (inactive)
CCCC(=O)NC(c1ccc(Cl)cc1Cl)c1ccc2cccnc2c1O (configuration not stated) | 2.35 µM
COc1cc(C(=O)NCCc2nc3ccccc3n2C)cc(OC)c1OC | > 35 µM (inactive)
Cc1cccc(N2CCN(c3ccc(N4C(=O)CCCC4=O)cc3[N+](=O)[O-])CC2C)c1 (configuration not stated) | > 35 µM (inactive)
Cc1nc2ccccc2nc1N/N=C/c1ccc(O)cc1O | 36.5 µM
COc1ccc(C(=O)/C=C/C(=O)N(CC(=O)NC2CCCCC2)CC2CCCO2)c(O)c1 (configuration not stated) | > 35 µM (inactive)
COc1ccc(/C=C(\C#N)c2nc3ccccc3[nH]2)cc1O | > 35 µM (inactive)
Cc1ccc(C2(C)NC(=O)N(CC(=O)NC(=O)NC(C)(C)C)C2=O)cc1 (configuration not stated) | > 35 µM (inactive)
Cc1cc(N/N=C/c2ccc(O)cc2O)nc(-c2ccccc2O)n1 | 4.53 µM
N#Cc1ccccc1S(=O)(=O)N1CCN(c2cnccn2)CC1 | > 35 µM (inactive)
CCOC(=O)Cc1nn(CC)c(=O)c2ccccc12 | > 35 µM (inactive)
CCCCNC(=O)CN1C(=O)COc2ccc(S(=O)(=O)N3CCCCCC3)cc21 | > 35 µM (inactive)
CCn1c(SCC(=O)Nc2nncs2)nnc1-c1ccco1 | > 35 µM (inactive)
Cc1nn(C)cc1S(=O)(=O)NCc1ccc2c(c1)OCO2 | > 35 µM (inactive)
CCCCn1c(=O)[nH]c(=O)c2c(C(=O)OCC)cc(-c3cccs3)nc21 | > 35 µM (inactive)
CCCC1CCC(=C(C#N)C(N)=O)CC1 (configuration not stated) | > 35 µM (inactive)
Oc1ccccc1/C=N/Nc1ncc(Br)cn1 | 13.4 µM
